Results: ChEMBL document CHEMBL1255199, “Endochin optimization: structure-activity and structure-property relationship studies of 3-substituted 2-methyl-4(1H)-quinolones with antimalarial activity” (J Med Chem, 2010)
Converted amounts (≈) assume the structure as drawn.

Assays:
[1] = Passive transcellular permeability of the compound at pH 4 by PAMPA; format: ADME; conditions: for Papp: read-out: permeability
[2] = Passive transcellular permeability of the compound at pH 7.4 by PAMPA; format: ADME; conditions: for Papp: read-out: permeability
[3] = Lipophilicity, log D of the compound at pH 7.4; conditions: buffer
in vitro = conditions: mouse, J774 cells
Description: Cytotoxicity index, ratio of EC50 for mice (Mus musculus) J774 cells to EC50 for chloroquine, mefloquine, pyrimethamine and atovaquone-resistant Plasmodium falciparum TM90-C2B

Plasmodium falciparum [4] = test: Antimalarial activity against chloroquine, mefloquine, pyrimethamine and atovaquone-resistant Plasmodium falciparum TM90-C2B infected in human A+ erythrocytes after 72 hrs by SYBR Green I assay; format: functional, organism-based
J774 = test: Cytotoxicity against mouse J774 cells; format: cell-based
physchem = conditions: aqueous, pH 7.4
Description: Aqueous solubility of the compound at pH 7.4 by HPLC analysis

Plasmodium falciparum [5] = test: Antimalarial activity against chloroquine and pyrimethamine-resistant Plasmodium falciparum W2 infected in human A+ erythrocytes after 72 hrs by SYBR Green I assay; format: functional, organism-based; conditions: W2, 72 h

Structure (SMILES)	Papp [1]	Papp [2]	logD [3]	selectivity ratio (in vitro)	EC50 (Plasmodium falciparum [4])	EC50 (J774)	solubility (physchem)	EC50 (Plasmodium falciparum [5])	permeability [2]	permeability [1]
Cc1nc2ccccc2c(OCc2ccccc2)c1Br	99.7 ×10⁻⁶ cm/s	794 ×10⁻⁶ cm/s	2.52							
COc1cccc2[nH]c(C)c(Cc3ccccc3)c(=O)c12	69.8 ×10⁻⁶ cm/s	158 ×10⁻⁶ cm/s	2.11	5.33	2110 nM	11200 nM	> 20 µM	6440 nM		
Cc1[nH]c2ccccc2c(=O)c1Cc1ccccc1	110 ×10⁻⁶ cm/s	102 ×10⁻⁶ cm/s	1.93	> 6.5	6200 nM	> 40100 nM	10 µM (≈ 2.49 µg/mL)	> 5010 nM		
COc1ccc2nc(C)c(Cc3ccccc3)c(OC)c2c1	294 ×10⁻⁶ cm/s		4.2		> 8520 nM		2 µM (≈ 0.587 µg/mL)	> 8520 nM	1067.76 ×10⁻⁶ cm/s	
Cc1[nH]c2cc(Cl)cc(Cl)c2c(=O)c1-c1ccccc1	460 ×10⁻⁶ cm/s	320 ×10⁻⁶ cm/s	2.72	> 9.5	3440 nM	> 32900 nM	5 µM (≈ 1.52 µg/mL)	2150 nM		
COc1ccc2c(=O)c(Cc3ccccc3)c(C)n(C)c2c1	432 ×10⁻⁶ cm/s	299 ×10⁻⁶ cm/s	3.24		7840 nM		> 20 µM	> 8520 nM		
COc1c(Cc2ccccc2)c(C)nc2ccc(Cl)cc12	360 ×10⁻⁶ cm/s	268 ×10⁻⁶ cm/s	4.93		> 8400 nM		< 2 µM	> 8400 nM		
COc1cc2[nH]c(C)c(CC(C)C)c(=O)c2cc1Cl	496 ×10⁻⁶ cm/s	368 ×10⁻⁶ cm/s	2.99		63.3 nM	> 35700 nM		86.4 nM		
Cc1[nH]c2ccc(Cl)cc2c(=O)c1Br	84.5 ×10⁻⁶ cm/s	87.7 ×10⁻⁶ cm/s	2.02	172	126 nM	21700 nM	5 µM (≈ 1.36 µg/mL)	845 nM		
COc1c(-c2ccccc2)c(C)nc2ccc(Cl)cc12					> 8800 nM			> 8800 nM		
CCCCC#Cc1c(C)[nH]c2ccc(Cl)cc2c1=O	171 ×10⁻⁶ cm/s		2.98	> 0.84	43100 nM	> 36300 nM	2 µM (≈ 0.548 µg/mL)	> 9060 nM		
Cc1ccc2[nH]c(C)c(Br)c(=O)c2c1	26.4 ×10⁻⁶ cm/s	42.2 ×10⁻⁶ cm/s	1.07	74.9	261 nM	19600 nM		288 nM		
Cc1c(-c2ccccc2)c(=O)c2cc(Cl)ccc2n1C					> 8800 nM			> 8800 nM		
COc1cc2[nH]c(C)c(C(C)C)c(=O)c2cc1Cl	281 ×10⁻⁶ cm/s	187 ×10⁻⁶ cm/s	2.84	112	194 nM	21700 nM	> 20 µM	112 nM		
COc1ccc2c(c1)c(=O)c(Cc1ccccc1)c(C)n2C	295 ×10⁻⁶ cm/s	268 ×10⁻⁶ cm/s	2.73		8060 nM		10 µM (≈ 2.93 µg/mL)	> 8520 nM		
COc1ccc2c(=O)cc(C)[nH]c2c1		8.91 ×10⁻⁶ cm/s	1.2	> 4.2	12500 nM	> 52800 nM		> 13200 nM		
Cc1[nH]c2ccc(Cl)c(Cl)c2c(=O)c1-c1ccccc1	285 ×10⁻⁶ cm/s	192 ×10⁻⁶ cm/s	2.83	> 10.2	3210 nM	> 32900 nM	< 2 µM	659 nM		
CCc1c(C)[nH]c2cc(OC)c(F)cc2c1=O		19.1 ×10⁻⁶ cm/s	1.2	58.3	161 nM	9400 nM	< 2 µM	368 nM		22.9 ×10⁻⁶ cm/s
CCCCCCCc1c(C)[nH]c2cc(OC)c(Cl)cc2c1=O	< 0.01 ×10⁻⁶ cm/s	< 0.01 ×10⁻⁶ cm/s	< 3.83	> 10500	2.95 nM	> 37100 nM	< 2 µM	12.3 nM		
COc1cc2[nH]c(C)c(C)c(=O)c2cc1Cl	37 ×10⁻⁶ cm/s	59.2 ×10⁻⁶ cm/s	1.86	449	27.3 nM	12200 nM	5 µM (≈ 1.19 µg/mL)	56.6 nM		
Cc1[nH]c2ccccc2c(=O)c1/C=C/C(=O)OC(C)(C)C	105 ×10⁻⁶ cm/s	124 ×10⁻⁶ cm/s	2.34	> 4.8	> 8350 nM	> 40000 nM	> 20 µM	> 8350 nM		
Cc1[nH]c2ccccc2c(=O)c1/C=C/c1ccccc1	222 ×10⁻⁶ cm/s	224 ×10⁻⁶ cm/s	4.4	> 4	> 9080 nM	> 36300 nM		> 9080 nM		
CCCCCCCCCc1c(C)[nH]c2cc(OC)c(Cl)cc2c1=O			4.74	> 18000	1.59 nM	> 28700 nM	< 2 µM	6.03 nM		
Cc1[nH]c2c(Cl)c(Cl)ccc2c(=O)c1-c1ccccc1	189 ×10⁻⁶ cm/s	197 ×10⁻⁶ cm/s	3.27		> 8220 nM	> 32900 nM		> 8220 nM		

Structure (SMILES)	Papp [1]	Papp [2]	logD [3]	selectivity ratio (in vitro)	EC50 (Plasmodium falciparum [4])	EC50 (J774)	solubility (physchem)	EC50 (Plasmodium falciparum [5])	permeability [2]	permeability [1]
COc1cc2[nH]c(C)c(Br)c(=O)c2cc1Cl	125 ×10⁻⁶ cm/s	152 ×10⁻⁶ cm/s	0							
C=C(CCCCCCC)c1c(C)[nH]c2ccccc2c1=O			2.35				< 2 µM	39.6 nM		1755.67 ×10⁻⁶ cm/s
COc1ccc2[nH]c(C)c(Br)c(=O)c2c1		16.7 ×10⁻⁶ cm/s	1.62	> 32	1160 nM	> 37300 nM	> 20 µM	3000 nM		
CCCCC#Cc1c(C)[nH]c2ccc(OC)cc2c1=O			5.25	> 4	> 9210 nM	> 36800 nM		> 9210 nM	2438.2 ×10⁻⁶ cm/s	1020.6 ×10⁻⁶ cm/s
COc1ccc2c(OC)c(Cc3ccccc3)c(C)nc2c1	325 ×10⁻⁶ cm/s		4.35		> 8520 nM		2 µM (≈ 0.587 µg/mL)	> 8520 nM	1277.24 ×10⁻⁶ cm/s	
CCCCCC/C=C\Cc1c(C)[nH]c2ccccc2c1=O			5.94				< 2 µM	102 nM		
COc1ccc2c(=O)c(-c3ccccc3)c(C)[nH]c2c1		9.89 ×10⁻⁶ cm/s	1.56	> 140	269 nM	> 37700 nM		287 nM		
CCCCC#Cc1c(C)[nH]c2cc(OC)c(Cl)cc2c1=O	148 ×10⁻⁶ cm/s		2.45	3.6	4210 nM	15000 nM	> 20 µM	2160 nM		
Cc1cc(=O)c2ccccc2[nH]1	1.56 ×10⁻⁶ cm/s	1.54 ×10⁻⁶ cm/s			> 62800 nM	> 62800 nM		> 44700 nM		
CCCCCCC/C=C/c1c(C)[nH]c2ccccc2c1=O	174 ×10⁻⁶ cm/s		4.26				< 2 µM	12.9 nM		
Cc1[nH]c2ccc(F)cc2c(=O)c1Br	16.2 ×10⁻⁶ cm/s	18.3 ×10⁻⁶ cm/s	1.61	> 313	125 nM	> 39100 nM		929 nM		
CCN(CC)CCCC(C)Nc1ccnc2cc(Cl)ccc12 (stereo not given) [CHLOROQUINE]					48.2 nM			164 nM		
COc1cc2[nH]c(C)c(Cc3ccccc3)c(=O)c2cc1Cl	575 ×10⁻⁶ cm/s	566 ×10⁻⁶ cm/s	1.99		68.6 nM	> 31900 nM		93.7 nM		
CCCCCCCCCc1c(C)[nH]c2ccccc2c1=O			4.33	69.9	39.8 nM	2800 nM		24.1 nM		
O=C1C(O)=C([C@H]2CC[C@H](c3ccc(Cl)cc3)CC2)C(=O)c2ccccc21 [ATOVAQUONE]					6230 nM			0.54 nM		
Cc1[nH]c2cc(Cl)c(Cl)cc2c(=O)c1-c1ccccc1			3.05	> 93.3	350 nM	> 32900 nM	< 2 µM	569 nM		
Cc1[nH]c2cc(Cl)ccc2c(=O)c1-c1ccccc1	37.8 ×10⁻⁶ cm/s		2.18	> 19.9	1860 nM	> 37100 nM	< 2 µM	216 nM		
COc1ccc2[nH]c(C)c(-c3ccccc3)c(=O)c2c1		126 ×10⁻⁶ cm/s	1.61	> 4	> 9420 nM	> 37700 nM		> 9420 nM		
CCCCCCCc1c(C)nc2ccccc2c1O			3.39	48.3	105 nM	5100 nM		93.2 nM		
CCCCC/C=C/c1c(C)[nH]c2cc(OC)c(Cl)cc2c1=O	280 ×10⁻⁶ cm/s	46.3 ×10⁻⁶ cm/s	3.57	> 2950	10.6 nM	> 31200 nM		31.5 nM		
Cc1c(Cc2ccccc2)c(=O)c2cc(Cl)ccc2n1C	510 ×10⁻⁶ cm/s	489 ×10⁻⁶ cm/s	3.21		> 8400 nM		2 µM (≈ 0.596 µg/mL)	> 8400 nM		
CCCCC#Cc1c(C)[nH]c2ccccc2c1=O	500 ×10⁻⁶ cm/s		5.44		> 10400 nM	8900 nM		8290 nM	2137.05 ×10⁻⁶ cm/s	
COc1cccc2c(=O)c(-c3ccccc3)c(C)[nH]c12	33.9 ×10⁻⁶ cm/s	37 ×10⁻⁶ cm/s	1.73	> 22.6	1660 nM	> 37700 nM		2060 nM		
